In patent US20050203086A1, “Methods of treatment using an EP2 selective receptor agonist” (Pfizer Inc., priority 2004, published 2005):

Target: T1, prostaglandin E2 type 2 (EP2) receptors (Homo sapiens, UniProt P43116)
T1 construct: These full length receptors are used to prepare 293S cells expressing the EP1, EP2, EP3 and EP4 receptors; expressed in transfected cells; membranes
Test: Assay for Binding to Prostaglandin E2 Receptors (3H-prostaglandin E2 displacement, membranes of transfected 293S cells)
Settings: concentration displacing 50% of specifically bound 3H-prostaglandin E2, 1 hour at 25° C.
Description: Membrane Preparation: All operations are performed at […]. Transfected cells expressing prostaglandin E2 type 1 receptors (EP1), type 2 (EP2), type 3 (EP3) or type 4 (EP4) receptors are harvested and suspended to 2 million cells per ml in Buffer A [50 mM Tris-HCl (pH 7.4), 10 mM MgCl2, 1 mM EDTA, 1 mM Pefabloc peptide, (Boehringer Mannheim Corp., Indianapolis, Ind.), 10 uM Phosporamidon peptide, (Sigma, St. Louis, Mo.), 1 uM pepstatin A peptide, (Sigma, St. Louis, Mo.), 10 uM elastatinal peptide, (Sigma, St. Louis, Mo.), 100 uM antipain peptide, (Sigma, St. Louis, Mo.)]. The cells are lysed by sonification with a Branson Sonifier (Model #250, Branson Ultrasonics Corporation, Danbury, Conn.) in 2 fifteen second bursts. Unlysed cells and debris are removed by centrifugation, at 100×g for 10 min. Membranes are then harvested by centrifugation at 45,000×g for 30 minutes. […] Resuspended membranes are then stored frozen at −80° C. until use.
Binding Assay: Frozen membranes prepared as above are thawed and diluted to 1 mg protein per ml in Buffer A above. […] The membranes with bound ^3H-prostaglandin E2 are trapped by the filter, while the buffer and unbound ^3H-prostaglandin E2 pass through the filter into waste. Each sample is then washed 3 times with 3 ml of [50 mM Tris-HCl (pH 7.4), 10 mM MgCl2, 1 mM EDTA]. The filters are then dried by heating in a microwave oven.
Typically, PCR (polymerase chain reaction) primers corresponding to the 5′ and 3′ ends of the published full length receptor are made according to the well known methods disclosed above and are used in an RT-PCR reaction using the total RNA from human kidney (for EP1), human lung (for EP2), human lung (for EP3) or human lymphocytes (for EP4) as a source. PCR products are cloned by the TA overhang method into pCR2.1 (Invitrogen, Carlsbad, Calif.) and identity of the cloned receptor is confirmed by DNA sequencing.
Stable cell lines expressing the receptor are established following selection of transfected cells with G418.

T1 sequence (P43116 whole entry): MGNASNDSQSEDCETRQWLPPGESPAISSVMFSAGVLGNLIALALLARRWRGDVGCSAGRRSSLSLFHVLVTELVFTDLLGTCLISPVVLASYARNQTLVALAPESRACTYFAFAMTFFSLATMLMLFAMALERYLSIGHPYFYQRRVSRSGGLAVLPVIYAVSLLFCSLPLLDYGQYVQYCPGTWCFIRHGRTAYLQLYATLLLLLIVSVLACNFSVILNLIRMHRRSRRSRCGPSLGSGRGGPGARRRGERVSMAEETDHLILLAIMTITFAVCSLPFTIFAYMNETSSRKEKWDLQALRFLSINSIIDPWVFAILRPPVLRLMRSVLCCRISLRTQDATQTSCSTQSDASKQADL

Compound	IC50 [nM]
Cc1noc(C)c1S(=O)(=O)N(CCCc1cccc(Cl)c1)CCCc1ccc(C(=O)O)s1 [Example 6h, 5-(3-((3-(3-Chloro-phenyl)-propyl)-(3.5-dimethyl-isoxazole-4-sulfonyl)-amino)-propyl)-thiophene-2-carboxylic acid]	140
COc1ccc(OC)c(S(=O)(=O)N(CCCc2cccc(Cl)c2)CCCc2ccc(C(=O)O)s2)c1 [Example 6i, 5-(3-((3-(3-Chloro-phenyl)-propyl)-(2,5-dimethoxy-benzenesulfonyl)-amino)-propyl)-thiophene-2-carboxylic acid]	270
O=C(O)c1ccc(CCCN(CCCc2cccc(Cl)c2)S(=O)(=O)c2ccccc2F)s1 [Example 6j, 5-(3-((3-(3-Chloro-phenyl)-propyl)-(2-fluoro-benzenesulfonyl)-amino)-propyl)-thiophene-2-carboxylic acid]	375
CC(C)NC(=O)N(CCCc1cccc(Cl)c1)CCCc1ccc(C(=O)O)s1 [Example 7a, 5-(3-(1-(3-(3-Chloro-phenyl)-propyl)-3-isopropyl-ureido)-propyl)-thiophene-2-carboxylic acid]	400
O=C(O)c1ccc(CCCN(CCCc2cccc(Cl)c2)C(=O)Nc2ccccc2)s1 [Example 7b, 5-(3-(1-(3-(3-Chloro-phenyl)-propyl)-3-phenyl-ureido)-propyl)-thiophene-2-carboxylic acid]	140
O=C(O)c1ccc(CCCN(CCCc2cccc(Cl)c2)C(=O)Nc2ccc(Cl)c(Cl)c2)s1 [Example 7c, 5-(3-(1-(3-(3-Chloro-phenyl)-propyl)-3-(3,4-dichloro-phenyl)-ureido)-propyl)-thiophene-2-carboxylic acid]	260
CCCNC(=O)N(CCCc1cccc(Cl)c1)CCCc1ccc(C(=O)O)s1 [Example 7d, 5-(3-(1-(3-(3-Chloro-Phenyl)-propyl)-3-propyl-ureido)-propyl)-thiophene-2-carboxylic acid]	52
O=C(O)c1ccc(CCCN(CCCc2cccc(Cl)c2)C(=O)Nc2cccc(Cl)c2Cl)s1 [Example 7f, 5-(3-(1-(3-(3-Chloro-phenyl)-propyl)-3-(2,3-dichloro-phenyl)-ureido)-propyl) thiophene-2-carboxylic acid]	344
O=C(O)c1ccc(CCCN(CCCc2cccc(Cl)c2)C(=O)Nc2cc(Cl)cc(Cl)c2)s1 [Example 7g, 5-(3-(1-(3-(3-Chloro-phenyl)-propyl)-3-(3,5-dichloro-phenyl)-ureido)-propyl)-thiophene-2-carboxylic acid]	412
O=C(O)c1ccc(CCCN(CCCc2cccc(Cl)c2)C(=O)Nc2c(F)cccc2F)s1 [Example 7h, 5-(3-(1-(3-(3-Chloro-phenyl)-propyl)-3-(2,6-difluoro-phenyl)-ureido)-propyl)-thiophene-2-carboxylic acid]	172
O=C(O)c1ccc(CCCN(CCCc2cccc(Cl)c2)C(=O)N2CCCC2)s1 [Example 8, 5-(3-((3-(3-Chloro-phenyl)-propyl)-(Pyrrolidine-1-carbonyl)-amino)-propyl)-thiophene-2-carboxylic acid]	71
O=C(O)c1ccc(CCCN(CCCc2cccc(Cl)c2)C(=O)N2CCOCC2)s1 [Example 8a, 5-(3-((3-(3-Chloro-phenyl)-Propyl)-(morpholine-4-carbonyl)-amino)-propyl)-thiophene-2-carboxylic acid]	180
CC(C)OC(=O)N(CCCc1cccc(Cl)c1)CCCc1ccc(C(=O)O)s1 [Example 8b, 5-(3-((3-(3-Chloro-phenyl)-propyl)-isopropoxycarbonyl-amino)-propyl)-thiophene-2-carboxylic acid]	266
CCCCc1ccc(CN(Cc2cccc(CC(=O)O)c2)S(=O)(=O)c2ccccc2)cc1 [Example 9a, (3-((Benzenesulfonyl-(4-butyl-benzyl)-amino)-methyl)-phenyl)-acetic acid]	84.5
CCCCc1ccc(CN(Cc2cccc(CC(=O)O)c2)S(=O)(=O)c2cccs2)cc1 [Example 9b, (3-(((4-Butyl-benzyl)-(thiophene-2-sulfonyl)-amino)-methyl)-phenyl)-acetic acid]	94.5
CCCCc1ccc(CN(Cc2cccc(CC(=O)O)c2)S(=O)(=O)c2ccc(NC(C)=O)cc2)cc1 [Example 9c, (3-(((4-Acetylamino-benzenesulfonyl)-(4-butyl-benzyl)-amino)-methyl)-phenyl)-acetic acid]	490
CCCCc1ccc(CN(Cc2cccc(CC(=O)O)c2)S(=O)(=O)c2cccc3nonc23)cc1 [Example 9d, (3-(((Benzo[1,2,5]oxadiazole-4-sulfonyl)-(4-butyl-benzyl)-amino)-methyl)-phenyl)-acetic acid]	203
(3-(((4-Butyl-benzyl)-(pyridine-3-sulfonyl)-amino)-methyl)-phenyl)-acetic acid [Example 9]	17
